Measured values from patent publication US10512631B2, “Chalcone compounds” (Beth Israel Deaconess Medical Center, Inc., priority 2015, dated 2019).

Legend:
PC3 cells = experiment: Immunofluorescence of P-Histone H3 and α-tubulin in PC3 cells (siRNA STMN1 or control); type: cell-based
Description: Immunofluorescence and immunostaining on cell lines and tumor samples were performed as described in Wegiel et al, Cancer research 2013, 73(23), 7009-21. Anti-mouse STMN1, anti-P (Ser10)-Histone H3, and α-tubulin antibody were obtained from Cell Signaling. β-actin antibody was obtained from Sigma-Aldrich. Cells were treated with Compound 6 (1 μM) or DMSO for 48 hours. After immunofluorescence staining, the number of P-Histone H3 was quantified per field of view at 40× magnification using Zeiss Axiovert Microscope.
siRNA against STMN1 and scramble siRNA were obtained from Darmacon (ONTARGET plus siRNA). PC3 cells were transiently transfected with siRNA against STMN1 or scramble siRNA using Lipofectamine 2000 (Invitrogen) as previously described in Wegiel et al., J. Biol. Chem. 2009, 7; 284(32):21369-78. Twenty four hours post-transfection, cells were split to 96 well plates and treated with test compounds for 72 hours. STMN1 levels were measured by immunoblotting to confirm successful knockdown.

[1] = target: T1, ASK1 kinase and STMN1 interaction (Homo sapiens, UniProt Q99683); experiment: Immunoprecipitation of STMN1 / immunoblotting of P-ASK1; type: cell-based; details: A549 cells, 1 μM, 30 minutes
T1 construct: immunoblotting with antibody against P-ASK1 (Ser83) in A549 cells treated with 1 μM Compound 6 or DMSO; endogenous in cells; host or cells: A549 cells
T1 sequence (Q99683 1-1374): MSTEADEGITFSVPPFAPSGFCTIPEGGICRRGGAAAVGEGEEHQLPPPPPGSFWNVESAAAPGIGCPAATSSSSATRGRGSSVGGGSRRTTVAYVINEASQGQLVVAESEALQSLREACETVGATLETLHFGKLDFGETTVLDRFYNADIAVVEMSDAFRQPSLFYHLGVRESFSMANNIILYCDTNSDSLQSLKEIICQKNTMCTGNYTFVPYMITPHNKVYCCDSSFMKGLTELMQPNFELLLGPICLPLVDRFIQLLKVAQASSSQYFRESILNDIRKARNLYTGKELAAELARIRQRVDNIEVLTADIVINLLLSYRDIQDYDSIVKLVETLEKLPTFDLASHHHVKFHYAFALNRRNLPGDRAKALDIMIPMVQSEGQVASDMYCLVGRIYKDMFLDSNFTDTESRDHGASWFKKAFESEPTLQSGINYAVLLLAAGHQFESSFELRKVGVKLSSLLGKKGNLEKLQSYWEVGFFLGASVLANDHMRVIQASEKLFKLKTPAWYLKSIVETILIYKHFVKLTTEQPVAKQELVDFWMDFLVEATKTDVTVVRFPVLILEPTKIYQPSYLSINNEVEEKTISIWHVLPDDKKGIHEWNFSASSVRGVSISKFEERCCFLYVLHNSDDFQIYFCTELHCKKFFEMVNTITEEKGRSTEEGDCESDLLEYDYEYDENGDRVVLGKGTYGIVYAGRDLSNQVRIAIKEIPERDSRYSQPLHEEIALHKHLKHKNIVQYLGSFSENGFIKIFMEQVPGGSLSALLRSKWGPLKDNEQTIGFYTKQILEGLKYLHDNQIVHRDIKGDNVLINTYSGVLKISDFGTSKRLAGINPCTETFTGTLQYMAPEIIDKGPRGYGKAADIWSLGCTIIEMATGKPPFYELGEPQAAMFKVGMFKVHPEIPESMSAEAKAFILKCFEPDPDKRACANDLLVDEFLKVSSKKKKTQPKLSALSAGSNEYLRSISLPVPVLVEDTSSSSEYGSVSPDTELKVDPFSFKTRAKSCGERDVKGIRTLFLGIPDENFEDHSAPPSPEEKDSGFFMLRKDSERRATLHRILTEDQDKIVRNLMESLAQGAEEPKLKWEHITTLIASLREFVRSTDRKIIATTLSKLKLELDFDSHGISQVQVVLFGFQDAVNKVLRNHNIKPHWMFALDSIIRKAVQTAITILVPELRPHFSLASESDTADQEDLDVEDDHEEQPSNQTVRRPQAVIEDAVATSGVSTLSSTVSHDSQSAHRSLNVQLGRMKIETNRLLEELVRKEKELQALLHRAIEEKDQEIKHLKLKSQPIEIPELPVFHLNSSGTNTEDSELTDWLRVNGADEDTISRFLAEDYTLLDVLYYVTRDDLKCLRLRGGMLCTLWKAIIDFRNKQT
Description: Snap-frozen tissue samples were homogenized in ice-cold tissue lysis buffer (250 mM NaCl, 5 mM EDTA, 1% Triton X-100, 10 mM Tris-HCl; pH 7.5) containing the protease inhibitor cocktail Complete Mini (Roche). For co-immunoprecipitation, 200 μg protein lysates in RIPA buffer and the protease inhibitor cocktail were mixed with appropriate antibodies and 30 μl Protein A/G Plus-agarose beads (Santa Cruz Biotechnology) and then rotated for 1 hour at room temperature. The proteins were washed with RIPA buffer and eluted (95° C., 5 min in SDS loading buffer). Immunoblotting was performed as previously described in Chin et al., Proc. Natl. Acad. Sci. USA 2007, 104(12), 5109-14. Antibodies: P (Ser967)-ASK1 (Cell Signaling), Ask1 (Cell Signaling), P-STMN1 (Ser16) (Cell Signaling), STMN1 (Cell Signaling), 13-Actin (Sigma) were used at 1:1000 dilution.

Cn1ccc2cc(/C=C3\CCc4ccc(F)cc4C3=O)ccc21 [Compound 6, (2E)-7-fluoro-2-[(1-methyl-1H-indol-5-yl)methylidene]-1,2,3,4-tetrahydronaphthalen-1-one]
number of cells undergoing mitosis (P-Histone H3) and normal mitotic spindles (α-tubulin) (PC3 cells; 1 μM): blocked number of cells undergoing mitosis | microtubule destabilization, aberrant mitotic spindle and P-Histone H3 positive cells in the absence of STMN1 (PC3 cells; siRNA against STMN1, 1 μM): in part reversed | ASK1 kinase and STMN1 interaction [1]: significantly blocked
